Columns and labels:
[1] = tested on: U937 cells; assay: Escape velocity of treated and untreated leukemia cells; assay type: cell-based; conditions: PMA 5 ug/mL, 37° C., treated for 6 hours
Text: Separation By Refractive Index—Polystyrene, polymethylmethacrylate and silica particles of similar size (˜5 micrometer diameter, Bangs Labs) and refractive indexes of 1.59, 1.49 and 1.37, respectively, were sorted by moving optical gradient fields. Observed escape velocities for polystyrene, PMMA and silica were 44, 47 and 32 micrometers/second, respectively. Briefly, a particle is aligned in the fringe and the fringes are moved at increasing speed until the particle slips. […] It will be appreciated by those skilled in the art that the absolute value of the escape velocity will differ depending upon system conditions, e.g., laser power. The numerical results provided herein are meant to provide measured data for the system actually used, and are not to be considered a limitation on the values which might exist in a different system.
PMA was dissolved in ethanol at a concentration of 5 mg/mL. 3 mls of U937 cells grown in RPMI 1640 media with supplements were removed from the culture flask and 1 ml was placed into each of three eppendorf tubes. Cells from the first tube were pelleted for 4 minutes at 10,000 rpm and resuspended in 250 uL PBS/1% BSA buffer for escape velocity measurements. PMA was added to the remaining two tubes of U937 cells to a final concentration of 5 ug/mL. These tubes were vortexed and placed in a 37° C. water bath for either one hour or six hours. […]

[2] = tested on: K562 Cells; assay: Escape velocity of cells in a moving optical gradient field (1064 system, CYTOP coated coverslips); assay type: cell-based; conditions: K562 cells (chronic myelogenous leukemia, lymphoblast), 26 Hr. Taxol treatment; untreated K562 10.0 +/− 0.7
Text: Certain of the data reported herein were generated with the following setup. Optical gradient fields were generated using a Michelson interferometer and either a 150 mW, 812 nm laser (812 system) or a 2.5 W, 1064 nm laser (1064 system). The 812 system used a 100× (1.25 NA) oil immersion lens to focus the fringe pattern and to visualize the sample. The 1064 system used a 20× objective to focus the fringes and a 60× objective to visualize the sample. In general the sample cell was a coated microscope slide and/or coverslip that was sealed with Vaseline. Coverslip spacers controlled the height of the cell at approximately 150 micrometers
Separation By Refractive Index—Polystyrene, polymethylmethacrylate and silica particles of similar size (˜5 micrometer diameter, Bangs Labs) and refractive indexes of 1.59, 1.49 and 1.37, respectively, were sorted by moving optical gradient fields. Observed escape velocities for polystyrene, PMMA and silica were 44, 47 and 32 micrometers/second, respectively. […] The numerical results provided herein are meant to provide measured data for the system actually used, and are not to be considered a limitation on the values which might exist in a different system.
Escape velocities were measured using a gradient field generated by the 1064 system on CYTOP coated coverslips.

SMILES | escape velocity as compared to the untreated cells [1] | Escape Velocity [2]
CCCCCCCCCCCCCC(=O)O[C@@H]1[C@@H](C)[C@@]2(O)[C@@H](C=C(CO)C[C@]3(O)C(=O)C(C)=C[C@@H]23)[C@@H]2C(C)(C)[C@]12OC(C)=O [PMA] | significantly higher escape velocity | 
CC(=O)O[C@H]1C(=O)[C@@]2(C)[C@H]([C@H](OC(=O)c3ccccc3)[C@]3(O)C[C@H](OC(=O)[C@H](O)[C@@H](NC(=O)c4ccccc4)c4ccccc4)C(C)=C1C3(C)C)[C@]1(OC(C)=O)CO[C@@H]1C[C@@H]2O [Taxol] |  | 8.2 +/− 0.4 um/sec.

From patent US6815664B2, “Method for separation of particles” (Genoptix, Inc., priority 2001, dated 2004)
